Broadly, the IC50 is the point on the concentration scale where inhibition reaches its midpoint.

Common to all, as to assay: biochemical
One experiment has as its target T1, SARS-CoV-2 3CL^pro (Severe acute respiratory syndrome coronavirus 2, UniProt P0DTD1).
T1 construct: […]; made in house; host or cells: Escherichia coli

For a further experiment, the target named is T2, HCoV-229E 3CL^pro (Human coronavirus 229E, UniProt P0C6X1).
T2 construct: […]; made in house; host or cells: E. coli BL21 (DE3)

A further experiment deals with MERS-CoV 3CL^pro (Middle East respiratory syndrome-related coronavirus, UniProt K9N7C7).
A further experiment addresses SARS-CoV 3CL^pro (Severe acute respiratory syndrome coronavirus, UniProt P0C6X7).

Chain of MERS-CoV 3CL^pro (K9N7C7 3248-3553): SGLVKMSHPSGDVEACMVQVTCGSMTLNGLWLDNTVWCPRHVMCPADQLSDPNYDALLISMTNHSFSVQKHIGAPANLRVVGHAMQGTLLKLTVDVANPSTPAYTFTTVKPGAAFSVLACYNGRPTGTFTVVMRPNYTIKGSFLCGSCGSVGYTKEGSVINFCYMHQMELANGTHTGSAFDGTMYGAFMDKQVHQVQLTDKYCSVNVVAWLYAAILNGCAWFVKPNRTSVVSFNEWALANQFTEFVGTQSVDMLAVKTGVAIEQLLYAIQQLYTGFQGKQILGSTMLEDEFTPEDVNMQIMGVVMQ
T2 sequence (P0C6X1 2966-3267): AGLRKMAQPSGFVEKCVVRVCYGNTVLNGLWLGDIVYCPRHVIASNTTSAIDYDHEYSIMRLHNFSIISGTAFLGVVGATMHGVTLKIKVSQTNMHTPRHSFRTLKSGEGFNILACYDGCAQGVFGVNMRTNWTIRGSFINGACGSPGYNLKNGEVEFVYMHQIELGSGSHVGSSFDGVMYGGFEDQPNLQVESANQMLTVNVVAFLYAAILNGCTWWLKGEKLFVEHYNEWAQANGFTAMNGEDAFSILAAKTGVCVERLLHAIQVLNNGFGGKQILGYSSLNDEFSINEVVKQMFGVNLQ

As for `CC1(C)C[C@@H](CN(NC(=O)[C@@H]2[C@@H]3[C@H](CN2C(=O)[C@@H](NC(=O)[C@@H]2CC2(F)F)C(C)(C)C)C3(C)C)C(=O)[C@H](F)Cl)C(=O)N1` [Example 21, (1S)-N-[(1S)-1-[(1R,2S,5S)-2-[[[(2R)-2-chloro-2-fluoro-acetyl]-[[(3S)-5,5-dimethyl-2-oxo-pyrrolidin-3-yl]methyl]amino]carbamoyl]-6,6-dimethyl-3-azabicyclo[3.1.0]hexane-3-carbonyl]-2,2-dimethyl-propyl]-2,2-difluoro-cyclopropanecarboxamide], the IC50 against SARS-CoV-2 3CL^pro was 14 nM; at HCoV-229E 3CL^pro, 778 nM; at MERS-CoV 3CL^pro, 402 nM; on SARS-CoV 3CL^pro, 22 nM.
For `CC[C@H](C)[C@H](NC(=O)C1(F)CC1)C(=O)N1C[C@H]2[C@@H]([C@H]1C(=O)NN(C[C@H]1CC(C)(C)NC1=O)C(=O)[C@@H](F)Cl)C2(C)C` [Example 19, N-[(1S,2S)-1-[(1R,2S,5S)-2-[[[(2S)-2-chloro-2-fluoro-acetyl]-[[(3R)-5,5-dimethyl-2-oxo-pyrrolidin-3-yl]methyl]amino]carbamoyl]-6,6-dimethyl-3-azabicyclo[3.1.0]hexane-3-carbonyl]-2-methyl-butyl]-1-fluoro-cyclopropanecarboxamide] the same measures were 19 nM, 834 nM, 553 nM and 32 nM.
Consider `CC1(C)C[C@@H](CN(NC(=O)[C@@H]2[C@H]3CCC[C@H]3CN2C(=O)[C@@H](NC(=O)[C@@H](F)Cl)C(C)(C)C)C(=O)[C@@H](F)Cl)C(=O)N1` [Example 17], for which the IC50 against SARS-CoV-2 3CL^pro is 16 nM; against HCoV-229E 3CL^pro, 4260 nM; against MERS-CoV 3CL^pro, 1870 nM; at SARS-CoV 3CL^pro, 19 nM.
On to `CC(C)(C)[C@H](NC(=O)[C@@H]1CC1(F)F)C(=O)N1C[C@@H]2CCC[C@@H]2[C@H]1C(=O)NN(C[C@H]1C(=O)N[C@H]2C[C@H]21)C(=O)[C@@H](F)Cl` [Example 39, (1S)-N-[(1S)-1-[(3S,3aS,6aR)-3-[[[(2S)-2-chloro-2-fluoro-acetyl]-[[(1S,4S,5S)-3-oxo-2-azabicyclo[3.1.0]hexan-4-yl]methyl]amino]carbamoyl]-3,3a,4,5,6,6a-hexahydro-1H-cyclopenta[c]pyrrole-2-carbonyl]-2,2-dimethyl-propyl]-2,2-difluoro-cyclopropanecarboxamide], for which the IC50 on SARS-CoV-2 3CL^pro turned out to be 29 nM; at HCoV-229E 3CL^pro it was 207 nM; on MERS-CoV 3CL^pro, 289 nM; against SARS-CoV 3CL^pro, 34 nM.
`CC(C)(C)[C@H](NC(=O)[C@@H]1CC1(F)F)C(=O)N1C[C@@H]2CCC[C@@H]2[C@H]1C(=O)NN(C[C@H]1C(=O)N[C@@H]2C[C@@H]21)C(=O)[C@H](F)Cl` [Example 35, (1S)-N-[(1S)-1-[(3S,3aS,6aR)-3-[[[(2R)-2-chloro-2-fluoro-acetyl]-[[(1R,4S,5R)-3-oxo-2-azabicyclo[3.1.0]hexan-4-yl]methyl]amino]carbamoyl]-3,3a,4,5,6,6a-hexahydro-1H-cyclopenta[c]pyrrole-2-carbonyl]-2,2-dimethyl-propyl]-2,2-difluoro-cyclopropanecarboxamide]: the IC50 against SARS-CoV-2 3CL^pro turned out to be 10 nM; on HCoV-229E 3CL^pro it was 41 nM; at MERS-CoV 3CL^pro, 117 nM; on SARS-CoV 3CL^pro, 7 nM.
In the case of `CC[C@H](C)[C@H](NC(=O)C1(F)CC1)C(=O)N1C[C@H]2[C@@H]([C@H]1C(=O)NN(C[C@H]1CC(C)(C)NC1=O)C(=O)[C@H](F)Cl)C2(C)C` [Example 1b, N-[(1S,2S)-1-[(1R,2S,5S)-2-[[[(2R)-2-chloro-2-fluoro-acetyl]-[[(3R)-5,5-dimethyl-2-oxo-pyrrolidin-3-yl]methyl]amino]carbamoyl]-6,6-dimethyl-3-azabicyclo[3.1.0]hexane-3-carbonyl]-2-methyl-butyl]-1-fluoro-cyclopropanecarboxamide], the IC50 against SARS-CoV-2 3CL^pro came to 13 nM; on HCoV-229E 3CL^pro, 131 nM; on MERS-CoV 3CL^pro, 234 nM; at SARS-CoV 3CL^pro, 18 nM.
In the case of `CC1(C)C[C@H](CN(NC(=O)[C@@H]2[C@@H]3[C@H](CN2C(=O)[C@@H](NC(=O)[C@@H]2CC2(F)F)C(C)(C)C)C3(C)C)C(=O)[C@H](F)Cl)C(=O)N1` [Example 24, (1S)-N-[(1S)-1-[(1R,2S,5S)-2-[[[(2R)-2-chloro-2-fluoro-acetyl]-[[(3R)-5,5-dimethyl-2-oxo-pyrrolidin-3-yl]methyl]amino]carbamoyl]-6,6-dimethyl-3-azabicyclo[3.1.0]hexane-3-carbonyl]-2,2-dimethyl-propyl]-2,2-difluoro-cyclopropanecarboxamide], the IC50 is 87 nM against SARS-CoV-2 3CL^pro, 2250 nM at HCoV-229E 3CL^pro, 1400 nM on MERS-CoV 3CL^pro and 177 nM against SARS-CoV 3CL^pro.
Take `C[C@H]1C[C@@H](CN(NC(=O)[C@@H]2[C@H]3CCC[C@H]3CN2C(=O)[C@@H](NC(=O)[C@@H]2CC2(F)F)C(C)(C)C)C(=O)[C@H](F)Cl)C(=O)N1` [Example 27, (1S)-N-[(1S)-1-[(3S,3aS,6aR)-3-[[[(2R)-2-chloro-2-fluoro-acetyl]-[[(3S,5S)-5-methyl-2-oxo-pyrrolidin-3-yl]methyl]amino]carbamoyl]-3,3a,4,5,6,6a-hexahydro-1H-cyclopenta[c]pyrrole-2-carbonyl]-2,2-dimethyl-propyl]-2,2-difluoro-cyclopropanecarboxamide]: the IC50 on SARS-CoV-2 3CL^pro is 6 nM; against HCoV-229E 3CL^pro, 30 nM; at MERS-CoV 3CL^pro, 63 nM; against SARS-CoV 3CL^pro, 10 nM.
Take `CC1(C)C[C@H](CN(NC(=O)[C@@H]2[C@H]3CCC[C@H]3CN2C(=O)[C@@H](NC(=O)C(F)F)C(C)(C)C)C(=O)[C@H](F)Cl)C(=O)N1` [Example 10, N-[(1S)-1-[(3S,3aS,6aR)-3-[[[(2R)-2-chloro-2-fluoro-acetyl]-[[(3R)-5,5-dimethyl-2-oxo-pyrrolidin-3-yl]methyl]amino]carbamoyl]-3,3a,4,5,6,6a-hexahydro-1H-cyclopenta[c]pyrrole-2-carbonyl]-2,2-dimethyl-propyl]-2,2-difluoro-acetamide]: the concentration for half-maximal inhibition (IC50) was 31 nM against SARS-CoV-2 3CL^pro, 3040 nM at HCoV-229E 3CL^pro, 794 nM against MERS-CoV 3CL^pro and 53 nM against SARS-CoV 3CL^pro.
`C[C@@H]1C[C@H](CN(NC(=O)[C@@H]2[C@H]3CCC[C@H]3CN2C(=O)[C@@H](NC(=O)[C@@H]2CC2(F)F)C(C)(C)C)C(=O)[C@@H](F)Cl)C(=O)N1` [Example 29, (1S)-N-[(1S)-1-[(3S,3aS,6aR)-3-[[[(2S)-2-chloro-2-fluoro-acetyl]-[[(3R,5R)-5-methyl-2-oxo-pyrrolidin-3-yl]methyl]amino]carbamoyl]-3,3a,4,5,6,6a-hexahydro-1H-cyclopenta[c]pyrrole-2-carbonyl]-2,2-dimethyl-propyl]-2,2-difluoro-cyclopropanecarboxamide]: the IC50 at SARS-CoV-2 3CL^pro turned out to be 36 nM; against HCoV-229E 3CL^pro it was 233 nM; at MERS-CoV 3CL^pro, 344 nM; on SARS-CoV 3CL^pro, 93 nM.

The values above are taken from patent US20260125421A1, “ANTIVIRAL COMPOUNDS” (Hoffmann-La Roche Inc., priority 2022, published 2026).
